From patent US4068070A, “α-Cyanoamine compounds and a process for producing the same” (Fuji Chemical Industry Co., Ltd., priority 1974, dated 1978)

Assays:
Format in all cases: in vivo, mongrel adult dogs
heart rate = experiment: Effects on heart rate
Summary of the method: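 Adult mongrel dogs of both sexes were anesthetized with pentobarbital and thoracotomized. Test agents, suspended or dissolved in 0.2% CMC, pH 6 HCl solution or saline, were injected intravenously into the brachial vein. Hemodynamic and coronary sinus parameters were then recorded.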

coronary sinus out flow = experiment: Effects on coronary sinus out flow
Summary of the method: (§1)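 Dog, mongrel, ~10 kg, thoracotomized, pentobarbital anesthesia. Dosing i.v. (brachial), vehicle CMC 0.2%, HCl pH 6 or saline. Coronary sinus outflow by electromagnetic flowmeter, coronary sinus pO2 by macro electrode, both via Morawitz cannulation.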

[1] = test system: coronary sinus oxygen tension; experiment: Effects on coronary sinus oxygen tension
Summary of the method: as §1

aortic blood flow = experiment: Effects on aortic blood flow
Summary of the method: (§2)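 Open-chest, pentobarbital-anesthetized mongrel dogs (male and female, about 10 kg) received compounds intravenously via the brachial vein; vehicles were 0.2% CMC suspension, HCl solution (pH 6) or physiological saline. Mean arterial pressure came from a carotid-aortic cannula transducer, aortic flow from an electromagnetic flowmeter at the aortic root.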

[2] = test system: arterial mean blood pressure; experiment: Effects on arterial mean blood pressure
Summary of the method: as §2

## COc1ccc(C(C#N)N2CCNCC2)cc1OC (stereo not shown) [Compound F]
Heart rate; 2.0 mg/kg i.v., 1 min
  Changes(%) of basal values, heart rate: +2.6%
Heart rate; 2.0 mg/kg i.v., 5 min
  Changes(%) of basal values, heart rate: -1.5%
Heart rate; 2.0 mg/kg i.v., 10 min
  Changes(%) of basal values, heart rate: -2.3%
Heart rate; 2.0 mg/kg i.v., 20 min
  Changes(%) of basal values, heart rate: -1.8%
Heart rate; 2.0 mg/kg i.v., 30 min
  Changes(%) of basal values, heart rate: -0.7%
Heart rate; 2.0 mg/kg i.v., 40 min
  Changes(%) of basal values, heart rate: 0%
Heart rate; 2.0 mg/kg i.v., imm.
  Changes(%) of basal values, heart rate: +1.4%
Heart rate; 6.0 mg/kg i.v., 1 min
  Changes(%) of basal values, heart rate: +3.7%
Heart rate; 6.0 mg/kg i.v., 5 min
  Changes(%) of basal values, heart rate: -2.2%
Heart rate; 6.0 mg/kg i.v., 10 min
  Changes(%) of basal values, heart rate: -3.6%
Heart rate; 6.0 mg/kg i.v., 20 min
  Changes(%) of basal values, heart rate: -3.3%
Heart rate; 6.0 mg/kg i.v., 30 min
  Changes(%) of basal values, heart rate: -2.0%
Heart rate; 6.0 mg/kg i.v., 40 min
  Changes(%) of basal values, heart rate: -1.4%
Heart rate; 6.0 mg/kg i.v., imm.
  Changes(%) of basal values, heart rate: -7.2%
Heart rate; i.v., anesthetized dogs
  Effects on heart rate (in words): slight negative chronotropic effects accompanied by an increase in heart rate immediately after administration
Coronary sinus out flow; 2.0 mg/kg i.v., 1 min
  Changes(%) of basal values, coronary sinus out flow: +2.9%
Coronary sinus out flow; 2.0 mg/kg i.v., 5 min
  Changes(%) of basal values, coronary sinus out flow: -1.7%
Coronary sinus out flow; 2.0 mg/kg i.v., 10 min
  Changes(%) of basal values, coronary sinus out flow: -4.4%
Coronary sinus out flow; 2.0 mg/kg i.v., 20 min
  Changes(%) of basal values, coronary sinus out flow: -3.1%
Coronary sinus out flow; 2.0 mg/kg i.v., 30 min
  Changes(%) of basal values, coronary sinus out flow: -1.0%
Coronary sinus out flow; 2.0 mg/kg i.v., 40 min
  Changes(%) of basal values, coronary sinus out flow: -0.2%
Coronary sinus out flow; 2.0 mg/kg i.v., imm.
  Changes(%) of basal values, coronary sinus out flow: +12.4%
Coronary sinus out flow; 6.0 mg/kg i.v., 1 min
  Changes(%) of basal values, coronary sinus out flow: +68.6%
Coronary sinus out flow; 6.0 mg/kg i.v., 5 min
  Changes(%) of basal values, coronary sinus out flow: +7.4%
Coronary sinus out flow; 6.0 mg/kg i.v., 10 min
  Changes(%) of basal values, coronary sinus out flow: +0.1%
Coronary sinus out flow; 6.0 mg/kg i.v., 20 min
  Changes(%) of basal values, coronary sinus out flow: -8.2%
Coronary sinus out flow; 6.0 mg/kg i.v., 30 min
  Changes(%) of basal values, coronary sinus out flow: -5.3%
Coronary sinus out flow; 6.0 mg/kg i.v., 40 min
  Changes(%) of basal values, coronary sinus out flow: -2.1%
Coronary sinus out flow; 6.0 mg/kg i.v., imm.
  Changes(%) of basal values, coronary sinus out flow: +74.5%
Coronary sinus out flow; i.v., anesthetized dogs
  Effects on coronary sinus out flow (in words): increased markedly coronary sinus out flow immediately after administration, effect of which was, however, relatively transitory
[1]; 2.0 mg/kg i.v., 1 min
  Changes(%) of basal values, coronary sinus oxygen tension: +1.4%
[1]; 2.0 mg/kg i.v., 5 min
  Changes(%) of basal values, coronary sinus oxygen tension: -1.1%
[1]; 2.0 mg/kg i.v., 10 min
  Changes(%) of basal values, coronary sinus oxygen tension: -1.4%
[1]; 2.0 mg/kg i.v., 20 min
  Changes(%) of basal values, coronary sinus oxygen tension: -0.8%
[1]; 2.0 mg/kg i.v., 30 min
  Changes(%) of basal values, coronary sinus oxygen tension: 0%
[1]; 2.0 mg/kg i.v., 40 min
  Changes(%) of basal values, coronary sinus oxygen tension: 0%
[1]; 2.0 mg/kg i.v., imm.
  Changes(%) of basal values, coronary sinus oxygen tension: +10.9%
[1]; 6.0 mg/kg i.v., 1 min
  Changes(%) of basal values, coronary sinus oxygen tension: +20.3%
[1]; 6.0 mg/kg i.v., 5 min
  Changes(%) of basal values, coronary sinus oxygen tension: +3.9%
[1]; 6.0 mg/kg i.v., 10 min
  Changes(%) of basal values, coronary sinus oxygen tension: +1.0%
[1]; 6.0 mg/kg i.v., 20 min
  Changes(%) of basal values, coronary sinus oxygen tension: -4.1%
[1]; 6.0 mg/kg i.v., 30 min
  Changes(%) of basal values, coronary sinus oxygen tension: -1.2%
[1]; 6.0 mg/kg i.v., 40 min
  Changes(%) of basal values, coronary sinus oxygen tension: -0.3%
[1]; 6.0 mg/kg i.v., imm.
  Changes(%) of basal values, coronary sinus oxygen tension: +20.1%
[1]; i.v., anesthetized dogs
  Effects on coronary sinus oxygen tension (in words): slightly transitory as compared with those of compounds as mentioned above
  increased oxygen tension: about 20%
Aortic blood flow; 2.0 mg/kg i.v., 1 min
  Changes (%) of basal values, aortic blood flow: +0.7%
Aortic blood flow; 2.0 mg/kg i.v., 5 min
  Changes (%) of basal values, aortic blood flow: -4.1%
Aortic blood flow; 2.0 mg/kg i.v., 10 min
  Changes (%) of basal values, aortic blood flow: -1.2%
Aortic blood flow; 2.0 mg/kg i.v., 20 min
  Changes (%) of basal values, aortic blood flow: 0%
Aortic blood flow; 2.0 mg/kg i.v., 30 min
  Changes (%) of basal values, aortic blood flow: 0%
Aortic blood flow; 2.0 mg/kg i.v., 40 min
  Changes (%) of basal values, aortic blood flow: 0%
Aortic blood flow; 2.0 mg/kg i.v., imm.
  Changes (%) of basal values, aortic blood flow: +9.2%
Aortic blood flow; 6.0 mg/kg i.v., 1 min
  Changes (%) of basal values, aortic blood flow: +12.1%
Aortic blood flow; 6.0 mg/kg i.v., 5 min
  Changes (%) of basal values, aortic blood flow: -2.2%
Aortic blood flow; 6.0 mg/kg i.v., 10 min
  Changes (%) of basal values, aortic blood flow: -2.0%
Aortic blood flow; 6.0 mg/kg i.v., 20 min
  Changes (%) of basal values, aortic blood flow: -1.2%
Aortic blood flow; 6.0 mg/kg i.v., 30 min
  Changes (%) of basal values, aortic blood flow: 0%
Aortic blood flow; 6.0 mg/kg i.v., 40 min
  Changes (%) of basal values, aortic blood flow: 0%
Aortic blood flow; 6.0 mg/kg i.v., imm.
  Changes (%) of basal values, aortic blood flow: +20.5%
Aortic blood flow; i.v., anesthetized dogs
  Effects on aortic blood flow (in words): an increase in blood flow immediately after administration, followed by a decrease in blood flow
[2]; 2.0 mg/kg i.v., 1 min
  Changes (%) of basal values, arterial mean blood pressure: -1.3%
[2]; 2.0 mg/kg i.v., 5 min
  Changes (%) of basal values, arterial mean blood pressure: -4.9%
[2]; 2.0 mg/kg i.v., 10 min
  Changes (%) of basal values, arterial mean blood pressure: -3.3%
[2]; 2.0 mg/kg i.v., 20 min
  Changes (%) of basal values, arterial mean blood pressure: -2.1%
[2]; 2.0 mg/kg i.v., 30 min
  Changes (%) of basal values, arterial mean blood pressure: -0.4%
[2]; 2.0 mg/kg i.v., 40 min
  Changes (%) of basal values, arterial mean blood pressure: 0%
[2]; 2.0 mg/kg i.v., imm.
  Changes (%) of basal values, arterial mean blood pressure: +2.3%
[2]; 6.0 mg/kg i.v., 1 min
  Changes (%) of basal values, arterial mean blood pressure: +15.8%
[2]; 6.0 mg/kg i.v., 5 min
  Changes (%) of basal values, arterial mean blood pressure: -9.3%
[2]; 6.0 mg/kg i.v., 10 min
  Changes (%) of basal values, arterial mean blood pressure: -12.5%
[2]; 6.0 mg/kg i.v., 20 min
  Changes (%) of basal values, arterial mean blood pressure: -10.0%
[2]; 6.0 mg/kg i.v., 30 min
  Changes (%) of basal values, arterial mean blood pressure: -5.2%
[2]; 6.0 mg/kg i.v., 40 min
  Changes (%) of basal values, arterial mean blood pressure: -2.8%
[2]; 6.0 mg/kg i.v., imm.
  Changes (%) of basal values, arterial mean blood pressure: +16.0%
[2]; i.v., anesthetized dogs
  Effects on arterial mean blood pressure (in words): an increase in blood pressure was observed immediately after administration, but thereafter, a long duration hypotensive effect was observed
